Laboratory results from PubChem BioAssay AID493145 (Sanford-Burnham Center for Chemical Genomics, 2011).
Values joined by “and” are separate entries in the source; they are usually repeats but may differ in a detail not shown here. Equal values may be shown once. Active and inactive are the calls of the source. No rule for the calls is given here.

What follows are compounds tested against Intestinal-type alkaline phosphatase (Homo sapiens) (UniProt P09923) (assay: activation of human intestinal phosphatase enzyme – biochemical, human enzyme for mouse series, mouse IAP activator project, SAR follow-up (AID 493145)). Conditions: purified human intestinal alkaline phosphatase, enzymatic activity.
Sequence of Intestinal-type alkaline phosphatase (Homo sapiens) (P09923 whole entry, looked up): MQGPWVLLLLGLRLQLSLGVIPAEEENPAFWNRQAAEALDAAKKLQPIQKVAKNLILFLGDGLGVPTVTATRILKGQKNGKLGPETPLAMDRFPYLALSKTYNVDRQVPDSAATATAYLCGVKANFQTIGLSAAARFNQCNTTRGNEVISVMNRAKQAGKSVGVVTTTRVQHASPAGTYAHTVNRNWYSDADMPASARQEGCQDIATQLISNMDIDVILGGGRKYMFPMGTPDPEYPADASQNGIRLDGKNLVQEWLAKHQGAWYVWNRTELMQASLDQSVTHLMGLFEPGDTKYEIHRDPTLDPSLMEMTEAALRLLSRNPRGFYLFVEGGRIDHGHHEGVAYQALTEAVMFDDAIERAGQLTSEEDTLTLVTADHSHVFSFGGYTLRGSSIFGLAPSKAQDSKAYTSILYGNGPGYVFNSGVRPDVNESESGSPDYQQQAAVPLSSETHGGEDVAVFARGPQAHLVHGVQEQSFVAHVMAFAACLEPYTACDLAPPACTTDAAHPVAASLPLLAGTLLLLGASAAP
`O=C(CN1C(=O)/C(=C\c2ccco2)SC1=S)Nc1cccc(C(=O)O)c1` was tested, and the EC50 was > 100 µM (inactive). With `COc1ccc(OC)c(NC(=O)CSc2sc3c(O)cc(=O)[nH]c3c2C#N)c1` the EC50 was > 100 µM (inactive). In the case of `CC(C(=O)Nc1ccc(C(=O)O)c(O)c1)N1C(=O)/C(=C\c2ccco2)SC1=S` (centres undefined), the EC50 is reported as > 100 µM (inactive). For `O=C(CN1C(=O)/C(=C/c2ccco2)SC1=S)Nc1ccc2nccnc2c1`, the EC50 was > 100 µM (inactive). `COc1ccc(Cl)cc1NC(=O)CSc1sc2c(O)cc(=O)[nH]c2c1C#N` was tested, and the EC50 was > 100 µM (inactive). `COC(=O)NNC(=O)c1cc(OC)c(OC)c(OC)c1` was tested, and the EC50 was > 100 µM (inactive). An EC50 of 66.4 µM was found for `FC(F)(F)c1cccc(NC(=S)NCCC(c2ccccc2)c2ccccc2)c1` in this work. `Cc1cc(NC(=O)CSc2sc3c(O)cc(=O)[nH]c3c2C#N)ccc1Br` was tested, and the EC50 was > 100 µM (inactive). In the case of `CCCSc1nnc(NC(=O)CSc2sc3c(O)cc(=O)[nH]c3c2C#N)s1`, the EC50 is reported as > 100 µM (inactive). In the case of `O=C(N/N=C/c1ccsc1)c1cc(O)c(O)c(O)c1`, the EC50 is reported as > 100 µM (inactive). In the case of `COc1cc(C(=O)NNC(=O)C2CC2)cc(OC)c1OC`, the EC50 is reported as > 100 µM (inactive). `CCOc1cccc(NC(=O)CSc2sc3c(O)cc(=O)[nH]c3c2C#N)c1` was tested, and the EC50 was > 100 µM (inactive). An EC50 of 52.3 µM was found for `COc1ccc(NC(=S)NCCC(c2ccccc2)c2ccccc2)cc1` in this work. `CC(C)N1CCC(=NNC(=O)c2cc(O)c(O)c(O)c2)CC1` was tested, and the EC50 was > 100 µM (inactive) and 66.6 µM. `N#Cc1c(SCC(=O)NCc2ccc3c(c2)OCO3)sc2c(O)cc(=O)[nH]c12` was tested, and the EC50 was > 100 µM (inactive). In the case of `N#Cc1c(SCC(=O)Nc2ccc(C(F)(F)F)cc2)sc2c(O)cc(=O)[nH]c12`, the EC50 is reported as > 100 µM (inactive). With `O=C(N/N=C/C1CC2CCC1C2)c1cc(O)c(O)c(O)c1` (centres undefined) the EC50 was > 100 µM (inactive). `Cc1ccc(Cl)cc1NC(=O)CSc1sc2c(O)cc(=O)[nH]c2c1C#N` was tested, and the EC50 was > 100 µM (inactive). In the case of `COc1ccc(OC)c(NC(=O)CCNS(=O)(=O)c2ccc3[nH]c(=O)oc3c2)c1`, the EC50 is reported as > 100 µM (inactive). For `Cc1ccc(NC(=O)CCNS(=O)(=O)c2ccc3[nH]c(=O)oc3c2)cc1N(C)C`, the EC50 was > 100 µM (inactive). An EC50 of 82.9 µM was found for `CCN(C(=O)C(C)N1C(=O)/C(=C/c2ccco2)SC1=S)C1CCS(=O)(=O)C1` (centres undefined) in this work. In the case of `O=C(CCNS(=O)(=O)c1ccc2[nH]c(=O)oc2c1)Nc1cccc(-c2ccno2)c1`, the EC50 is reported as > 100 µM (inactive). `COc1ccccc1NC(=O)CSc1sc2c(O)cc(=O)[nH]c2c1C#N` was tested, and the EC50 was > 100 µM (inactive). `O=C(N/N=C/c1ccco1)c1cc(O)c(O)c(O)c1` was tested, and the EC50 was > 100 µM (inactive).
